Measured values from patent US11780839B2, “Compounds for treating Huntington's disease” (PTC THERAPEUTICS, INC., priority 2018, dated 2023).

What follows are molecules tested on Endogenous Huntingtin Protein (assay: Endogenous Huntingtin Protein Assay (ELISA-based Meso Scale Discovery electrochemiluminescence)). Settings: MSD electrochemiluminescence, Table 1.
Format: cell-based
Protocol: Compounds of Formula (I) or Formula (II) were tested using the Meso Scale Discovery (MSD) Assay provided in International Application No. PCT/US2016/066042, filed on Dec. 11, 2016 and claiming priority to U.S. Provisional Application 62/265,652 filed on Dec. 10, 2015, the entire contents of which are incorporated herein by reference.
The Endogenous Huntingtin Protein assay used in Example 1 was developed using the ELISA-based MSD electrochemiluminescence assay platform.
Endogenous Huntingtin Protein Assay
Meso Scale Discovery (MSD) 96-well or 384-well plates were coated overnight at 4° C. with MW1 (expanded polyglutamine) or MAB2166 monoclonal antibody (for capture) at a concentration of 1 μg/mL in PBS (30 μL per well). Plates were then washed three times with 300 μL wash buffer (0.05% Tween-20 in PBS) and blocked (100 μL blocking buffer; 5% BSA in PBS) for 4-5 hours at room temperature with rotational shaking and then washed three times with wash buffer.
Samples (25 μL) were transferred to the antibody-coated MSD plate and incubated overnight at 4° C. After removal of the lysates, the plate was washed three times with wash buffer, and 25 μL of #5656S (Cell signaling; rabbit monoclonal) secondary antibody (diluted to 0.25 μg/mL in 0.05% Tween-20 in blocking buffer) was added to each well and incubated with shaking for 1 Hour at room temperature. Following incubation with the secondary antibody, the wells were rinsed with wash buffer after which 25 μL of goat anti-rabbit SULFO TAG secondary detection antibody (required aspect of the MSD system) (diluted to 0.25 μg/mL in 0.05% Tween-20 in blocking buffer) was added to each well and incubated with shaking for 1 hour at room temperature. After rinsing three times with wash buffer, 150 μL of read buffer T with surfactant (MSD) were added to each empty well, and the plate was imaged on a SI 6000 imager (MSD) according to manufacturers' instructions provided for 96- or 384-well plates.

SMILES | IC50
Cc1nnc(-c2ccc(-c3cnc(N(C)C4CC(C)(C)NC(C)(C)C4)nn3)c(O)c2)o1 [Cpd 81, 5-(5-methyl-1,3,4-oxadiazol-2-yl)-2-{3-[methyl(2,2,6,6-tetramethylpiperidin-4-yl)amino]-1,2,4-triazin-6-yl}phenol] | ≤ 0.1 µM
CC1CC(Oc2ncc(-c3ccc(-c4cn[nH]c4)cc3O)nn2)CC(C)N1 (centres unmarked) [Cpd 82, 2-{3-[(2,6-dimethylpiperidin-4-yl)oxy]-1,2,4-triazin-6-yl}-5-(1H-pyrazol-4-yl)phenol] | 0.1 to 0.5 µM
CN(c1ncc(-c2ccc(-c3cnccn3)cc2O)nn1)C1CC(C)(C)NC(C)(C)C1 [Cpd 83, 2-{3-[methyl(2,2,6,6-tetramethylpiperidin-4-yl)amino]-1,2,4-triazin-6-yl}-5-(pyrazin-2-yl)phenol] | ≤ 0.1 µM
CN(c1ncc(-c2ccc(-c3cccnn3)cc2O)nn1)C1CC(C)(C)NC(C)(C)C1 [Cpd 84, 2-{3-[methyl(2,2,6,6-tetramethylpiperidin-4-yl)amino]-1,2,4-triazin-6-yl}-5-(pyridazin-3-yl)phenol] | ≤ 0.1 µM
CN(c1ncc(-c2ccc(-c3ncccn3)cc2O)nn1)C1CC(C)(C)NC(C)(C)C1 [Cpd 85, 2-{3-[methyl(2,2,6,6-tetramethylpiperidin-4-yl)amino]-1,2,4-triazin-6-yl}-5-(pyrimidin-2-yl)phenol] | ≤ 0.1 µM
CN(c1ncc(-c2ccc(-c3cncnc3)cc2O)nn1)C1CC(C)(C)NC(C)(C)C1 [Cpd 86, 2-{3-[methyl(2,2,6,6-tetramethylpiperidin-4-yl)amino]-1,2,4-triazin-6-yl}-5-(pyrimidin-5-yl)phenol] | 0.1 to 0.5 µM
CN(c1ncc(-c2ccc(-c3cn[nH]c3)cc2O)nn1)C1C[C@H]2CCC[C@@H](C1)N2C (stereo partly drawn) [Cpd 87, 2-(3-{methyl[(1R,3s,5S)-9-methyl-9-azabicyclo[3.3.1]nonan-3-yl]amino}-1,2,4-triazin-6-yl)-5-(1H-pyrazol-4-yl)phenol] | ≤ 0.1 µM
COc1ncnc(-c2ccc(-c3cnc(N(C)C4CC(C)(C)NC(C)(C)C4)nn3)c(O)c2)n1 [Cpd 88, 5-(4-methoxy-1,3,5-triazin-2-yl)-2-{3-[methyl(2,2,6,6-tetramethylpiperidin-4-yl)amino]-1,2,4-triazin-6-yl}phenol] | ≤ 0.1 µM
CN(c1ncc(-c2ccc(-n3ccnc3)cc2O)nn1)C1CC(C)(C)NC(C)(C)C1 [Cpd 89, 5-(1H-imidazol-1-yl)-2-{3-[methyl(2,2,6,6-tetramethylpiperidin-4-yl)amino]-1,2,4-triazin-6-yl}phenol] | ≤ 0.1 µM
CN(c1ncc(-c2ccc(-n3cc(O)cn3)cc2O)nn1)C1CC(C)(C)NC(C)(C)C1 [Cpd 90, 1-(3-hydroxy-4-{3-[methyl(2,2,6,6-tetramethylpiperidin-4-yl)amino]-1,2,4-triazin-6-yl}phenyl)-1H-pyrazol-4-ol] | ≤ 0.1 µM
CN(c1ncc(-c2ccc(-c3cnco3)cc2O)nn1)C1CC(C)(C)NC(C)(C)C1 [Cpd 91, 2-{3-[methyl(2,2,6,6-tetramethylpiperidin-4-yl)amino]-1,2,4-triazin-6-yl}-5-(1,3-oxazol-5-yl)phenol] | ≤ 0.1 µM
CN(c1ncc(-c2ccc(-c3ccc4nccn4n3)cc2O)nn1)C1CC(C)(C)NC(C)(C)C1 [Cpd 92, 5-(imidazo[1,2-b]pyridazin-6-yl)-2-{3-[methyl(2,2,6,6-tetramethylpiperidin-4-yl)amino]-1,2,4-triazin-6-yl}phenol] | ≤ 0.1 µM
CN(c1ncc(-c2ccc(-n3cc(F)cn3)cc2O)nn1)C1CC(C)(C)NC(C)(C)C1 [Cpd 93, 5-(4-fluoro-1H-pyrazol-1-yl)-2-{3-[methyl(2,2,6,6-tetramethylpiperidin-4-yl)amino]-1,2,4-triazin-6-yl}phenol] | ≤ 0.1 µM
Cc1cnn(-c2ccc(-c3cnc(N(C)C4CC(C)(C)NC(C)(C)C4)nn3)c(O)c2)c1 [Cpd 94, 5-(4-methyl-1H-pyrazol-1-yl)-2-{3-[methyl(2,2,6,6-tetramethylpiperidin-4-yl)amino]-1,2,4-triazin-6-yl}phenol] | 0.1 to 0.5 µM
Oc1cc(-c2cn[nH]c2)ccc1-c1cnc(N2CCC3(CC2)CNC3)nn1 [Cpd 95, 2-[3-(2,7-diazaspiro[3.5]nonan-7-yl)-1,2,4-triazin-6-yl]-5-(1H-pyrazol-4-yl)phenol] | 0.1 to 0.5 µM
Oc1cc(-c2cn[nH]c2)ccc1-c1cnc(N2CC3(CCNCC3)C2)nn1 [Cpd 96, 2-[3-(2,7-diazaspiro[3.5]nonan-2-yl)-1,2,4-triazin-6-yl]-5-(1H-pyrazol-4-yl)phenol] | ≤ 0.1 µM

SMILES | IC50
CN(c1ncc(-c2ccc(-c3ccc4[nH]ncc4c3)cc2O)nn1)C1CC(C)(C)NC(C)(C)C1 [Cpd 97, 5-(1H-indazol-5-yl)-2-{3-[methyl(2,2,6,6-tetramethylpiperidin-4-yl)amino]-1,2,4-triazin-6-yl}phenol] | ≤ 0.1 µM
CN(c1ncc(-c2ccc(-c3cc(F)ccn3)cc2O)nn1)C1CC(C)(C)NC(C)(C)C1 [Cpd 98, 5-(4-fluoropyridin-2-yl)-2-{3-[methyl(2,2,6,6-tetramethylpiperidin-4-yl)amino]-1,2,4-triazin-6-yl}phenol] | 0.1 to 0.5 µM
CN(c1ncc(-c2ccc(-n3ncc([N+](=O)[O-])n3)cc2O)nn1)C1CC(C)(C)NC(C)(C)C1 [Cpd 99, 2-{3-[methyl(2,2,6,6-tetramethylpiperidin-4-yl)amino]-1,2,4-triazin-6-yl}-5-(4-nitro-2H-1,2,3-triazol-2-yl)phenol] | ≤ 0.1 µM
NC1C2CN(c3ncc(-c4ccc(-c5cn[nH]c5)cc4O)nn3)CC12 (centres unmarked) [Cpd 100, 2-[3-(6-amino-3-azabicyclo[3.1.0]hexan-3-yl)-1,2,4-triazin-6-yl]-5-(1H-pyrazol-4-yl)phenol] | ≤ 0.1 µM
CN(c1ncc(-c2ccc(-c3cnn(C4CC4)c3)cc2O)nn1)C1CC(C)(C)NC(C)(C)C1 [Cpd 101, 5-(1-cyclopropyl-1H-pyrazol-4-yl)-2-{3-[methyl(2,2,6,6-tetramethylpiperidin-4-yl)amino]-1,2,4-triazin-6-yl}phenol] | 0.1 to 0.5 µM
CN(c1ncc(-c2ccc(-c3ccncn3)cc2O)nn1)C1CC(C)(C)NC(C)(C)C1 [Cpd 102, 2-{3-[methyl(2,2,6,6-tetramethylpiperidin-4-yl)amino]-1,2,4-triazin-6-yl}-5-(pyrimidin-4-yl)phenol] | ≤ 0.1 µM
CN(c1ncc(-c2ccc(-c3ccc(O)cc3)cc2O)nn1)C1CC(C)(C)NC(C)(C)C1 [Cpd 103, 4-{3-[methyl(2,2,6,6-tetramethylpiperidin-4-yl)amino]-1,2,4-triazin-6-yl}[1,1'-biphenyl]-3,4’-diol] | ≤ 0.1 µM
CN(c1ncc(-c2ccc(-c3ccc(=O)[nH]c3)cc2O)nn1)C1CC(C)(C)NC(C)(C)C1 [Cpd 104, 5-(3-hydroxy-4-{3-[methyl(2,2,6,6-tetramethylpiperidin-4-yl)amino]-1,2,4-triazin-6-yl}phenyl)pyridin-2(1H)-one] | ≤ 0.1 µM
CN(c1ncc(-c2cc3cccnc3cc2O)nn1)C1CC(C)(C)NC(C)(C)C1 [Cpd 105, 6-{3-[methyl(2,2,6,6-tetramethylpiperidin-4-yl)amino]-1,2,4-triazin-6-yl}quinolin-7-ol] | 0.1 to 0.5 µM
CN(c1ncc(-c2ccc(-c3nnco3)cc2O)nn1)C1CC(C)(C)NC(C)(C)C1 [Cpd 106, 2-{3-[methyl(2,2,6,6-tetramethylpiperidin-4-yl)amino]-1,2,4-triazin-6-yl}-5-(1,3,4-oxadiazol-2-yl)phenol] | ≤ 0.1 µM
CC1(C)CC(Oc2ncc(-c3ccc(-c4cc[nH]n4)cc3O)nn2)CC(C)(C)N1 [Cpd 107, 5-(1H-pyrazol-3-yl)-2-{3-[(2,2,6,6-tetramethylpiperidin-4-yl)oxy]-1,2,4-triazin-6-yl}phenol] | 1 to 3 µM
Cn1ccc(-c2ccc(-c3cnc(OC4CC(C)(C)NC(C)(C)C4)nn3)c(O)c2)n1 [Cpd 108, 5-(1-methyl-1H-pyrazol-3-yl)-2-{3-[(2,2,6,6-tetramethylpiperidin-4-yl)oxy]-1,2,4-triazin-6-yl}phenol] | > 0.5 µM
Oc1cc(-c2cn[nH]c2)ccc1-c1cnc(N2CC3(CCCNC3)C2)nn1 [Cpd 109, 2-[3-(2,6-diazaspiro[3.5]nonan-2-yl)-1,2,4-triazin-6-yl]-5-(1H-pyrazol-4-yl)phenol] | 0.1 to 0.5 µM
Oc1cc(-c2cn[nH]c2)ccc1-c1cnc(N2CCC3(CNC3)C2)nn1 [Cpd 110, 2-[3-(2,6-diazaspiro[3.4]octan-6-yl)-1,2,4-triazin-6-yl]-5-(1H-pyrazol-4-yl)phenol] | 0.1 to 0.5 µM
CN(c1ncc(-c2ccc(-c3cc[nH]n3)cc2O)nn1)C1CC(C)(C)NC(C)(C)C1 [Cpd 111, 2-{3-[methyl(2,2,6,6-tetramethylpiperidin-4-yl)amino]-1,2,4-triazin-6-yl}-5-(1H-pyrazol-3-yl)phenol] | ≤ 0.1 µM
CN(c1ncc(-c2ccc(-c3ncc(F)cn3)cc2O)nn1)C1CC(C)(C)NC(C)(C)C1 [Cpd 112, 5-(5-fluoropyrimidin-2-yl)-2-{3-[methyl(2,2,6,6-tetramethylpiperidin-4-yl)amino]-1,2,4-triazin-6-yl}phenol] | 0.1 to 0.5 µM
